In the supplement of paper PMC7394473:

Key:
Settings in all cases: 72 h
U2OS [1] = assay: GR50 (concentration giving GR = 0.5)
Procedure: (§1)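 U2OS cells treated with full dose titrations of drug; live and dead cells counted by STACK microscopy (mKate2 nuclei, SYTOX Green) at 72 h, biological triplicates. GR and FV dose responses were fitted with 4-parameter logistic models (GR lower bound -1). GRADE (0-100) is the rescaled angle of a linear fit of FV versus GR at doses with GR >= 0, giving the percentage of the response due to cell death.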

U2OS [2] = assay: fractional viability (live cells / total cells); higher = less cell death
Procedure: (§2)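 U2OS::Nuc-mKate2 cells seeded in 96-well plates and treated with eight- to ten-point half-log or log dilutions of drug in the presence of 50 nM SYTOX Green. Live (mKate2+) and dead (SYTOX+) cells were counted by IncuCyte STACK live-cell microscopy at 72 h; biological triplicates. GR is the normalised growth-rate inhibition value (Hafner 2016; 1 = untreated growth, <0 = population shrinking). FV is live/(live+dead) cells, not normalised.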

U2OS [3] = assay: FV IC50 (concentration giving fractional viability 0.5); higher = less potent killing
Procedure: as §1

U2OS [4] = assay: drug GRADE (percent of response due to cell death) (% (0-100)); higher = more death-driven response
Procedure: as §1

U2OS [5] = assay: GRmin (fitted minimal GR value at highest effect) (GR value (dimensionless)); higher = less efficacious
Procedure: as §1

U2OS [6] = assay: normalized growth rate inhibition value (GR) relative to untreated cells (GR value (dimensionless, 1 = untreated growth)); higher = less growth inhibition
Procedure: as §2

Row | SMILES | GR50 (U2OS [1]) | fractional viability (U2OS [2]; 1 µM) | FV IC50 (U2OS [3]) | drug GRADE (U2OS [4]) | GRmin (U2OS [5]) | normalized growth rate inhibition value (U2OS [6]; 1 µM) | fractional viability (U2OS [2]; 10 µM) | normalized growth rate inhibition value (U2OS [6]; 10 µM) | fractional viability (U2OS [2]; 0.0316 µM) | fractional viability (U2OS [2]; 0.316 µM) | fractional viability (U2OS [2]; 3.16 µM) | fractional viability (U2OS [2]; 31.6 µM) | normalized growth rate inhibition value (U2OS [6]; 0.0316 µM) | normalized growth rate inhibition value (U2OS [6]; 0.316 µM) | normalized growth rate inhibition value (U2OS [6]; 3.16 µM) | normalized growth rate inhibition value (U2OS [6]; 31.6 µM) | fractional viability (U2OS [2]; 0.01 µM) | fractional viability (U2OS [2]; 0.1 µM) | normalized growth rate inhibition value (U2OS [6]; 0.01 µM) | normalized growth rate inhibition value (U2OS [6]; 0.1 µM) | also measured
1 | CCNC(=O)c1noc(-c2cc(C(C)C)c(O)cc2O)c1-c1ccc(CN2CCOCC2)cc1 [Luminespib] | 0.00564 µM | 0.442 | 18.6 nM | 17.6 | -0.319 | -0.331 | – | – | – | – | – | – | – | – | – | – | – | – | – | – | fractional viability (U2OS [2]; 0.000100578 µM): 0.99; fractional viability (U2OS [2]; 0.000317827 µM): 0.99; fractional viability (U2OS [2]; 0.00100433 µM): 0.989; fractional viability (U2OS [2]; 0.00317369 µM): 0.983; fractional viability (U2OS [2]; 0.0100289 µM): 0.844; fractional viability (U2OS [2]; 0.0316912 µM): 0.419; fractional viability (U2OS [2]; 0.100144 µM): 0.436; fractional viability (U2OS [2]; 0.316456 µM): 0.464; normalized growth rate inhibition value (U2OS [6]; 0.000100578 µM): 0.869; normalized growth rate inhibition value (U2OS [6]; 0.000317827 µM): 0.878; normalized growth rate inhibition value (U2OS [6]; 0.00100433 µM): 0.876; normalized growth rate inhibition value (U2OS [6]; 0.00317369 µM): 0.809; normalized growth rate inhibition value (U2OS [6]; 0.0100289 µM): -0.00384; normalized growth rate inhibition value (U2OS [6]; 0.0316912 µM): -0.331; normalized growth rate inhibition value (U2OS [6]; 0.100144 µM): -0.365; normalized growth rate inhibition value (U2OS [6]; 0.316456 µM): -0.239
2 | Cc1cc(Nc2ncc(Cl)c(Nc3ccccc3S(=O)(=O)C(C)C)n2)c(OC(C)C)cc1C1CCNCC1 [Ceritinib] | 3.32 µM | – | 5270 nM | 7.14 | – | – | 0 | -1 | – | – | – | – | – | – | – | – | – | – | – | – | fractional viability (U2OS [2]; 0.00100578 µM): 0.991; fractional viability (U2OS [2]; 0.00317827 µM): 0.989; fractional viability (U2OS [2]; 0.0100433 µM): 0.992; fractional viability (U2OS [2]; 0.0317369 µM): 0.988; fractional viability (U2OS [2]; 0.100289 µM): 0.989; fractional viability (U2OS [2]; 0.316912 µM): 0.984; fractional viability (U2OS [2]; 1.00144 µM): 0.98; fractional viability (U2OS [2]; 3.16456 µM): 0.943; normalized growth rate inhibition value (U2OS [6]; 0.00100578 µM): 1.05; normalized growth rate inhibition value (U2OS [6]; 0.00317827 µM): 1.06; normalized growth rate inhibition value (U2OS [6]; 0.0100433 µM): 1.15; normalized growth rate inhibition value (U2OS [6]; 0.0317369 µM): 1.13; normalized growth rate inhibition value (U2OS [6]; 0.100289 µM): 1.02; normalized growth rate inhibition value (U2OS [6]; 0.316912 µM): 0.964; normalized growth rate inhibition value (U2OS [6]; 1.00144 µM): 0.904; normalized growth rate inhibition value (U2OS [6]; 3.16456 µM): 0.588
3 | CC[C@]1(O)C[C@H]2CN(CCc3c([nH]c4ccccc34)[C@@](C(=O)OC)(c3cc4c(cc3OC)N(C=O)[C@H]3[C@@](O)(C(=O)OC)[C@H](OC(C)=O)[C@]5(CC)C=CCN6CC[C@]43[C@@H]65)C2)C1 [Vincristine] | – | – | 10.7 nM | 67.6 | 0.000271 | – | – | – | 0.426 | 0.472 | 0.427 | 0.415 | 0.0808 | 0.0568 | -0.0172 | 0.0544 | – | – | – | – | fractional viability (U2OS [2]; 0.00316 µM): 0.548; normalized growth rate inhibition value (U2OS [6]; 0.00316 µM): 0.251
4 | CC(=O)c1c(C)c2cnc(Nc3ccc(N4CCNCC4)cn3)nc2n(C2CCCC2)c1=O [Palbociclib] | 1.15 µM | 0.987 | – | 3.13 | 0.176 | 0.525 | – | – | – | – | 0.972 | – | – | – | 0.398 | – | – | – | – | – | fractional viability (U2OS [2]; 0.000317827 µM): 0.992; fractional viability (U2OS [2]; 0.00100433 µM): 0.992; fractional viability (U2OS [2]; 0.00317369 µM): 0.99; fractional viability (U2OS [2]; 0.0100289 µM): 0.989; fractional viability (U2OS [2]; 0.0316912 µM): 0.989; fractional viability (U2OS [2]; 0.100144 µM): 0.984; fractional viability (U2OS [2]; 0.316456 µM): 0.988; normalized growth rate inhibition value (U2OS [6]; 0.000317827 µM): 1.08; normalized growth rate inhibition value (U2OS [6]; 0.00100433 µM): 0.975; normalized growth rate inhibition value (U2OS [6]; 0.00317369 µM): 0.904; normalized growth rate inhibition value (U2OS [6]; 0.0100289 µM): 0.841; normalized growth rate inhibition value (U2OS [6]; 0.0316912 µM): 0.721; normalized growth rate inhibition value (U2OS [6]; 0.100144 µM): 0.769; normalized growth rate inhibition value (U2OS [6]; 0.316456 µM): 0.639
5 | CCOc1ccccc1-n1c(C(C)N2CCN(C(=O)COc3ccc(Cl)cc3)CC2)nc2ccccc2c1=O (stereo not given) [Erastin] | 4.14 µM | 0.961 | – | 44.7 | -0.351 | 0.826 | 0.647 | 0.22 | 0.982 | 0.976 | 0.945 | 0.531 | 1 | 0.878 | 0.586 | -0.0643 | 0.977 | 0.983 | 0.987 | 0.973 | –
6 | CC(C)n1nc(-c2ccc3oc(N)nc3c2)c2c(N)ncnc21 [INK-128] | 0.0318 µM | – | – | 10.9 | 0.0247 | – | – | – | – | – | – | – | – | – | – | – | – | – | – | – | fractional viability (U2OS [2]; 0.000318058 µM): 0.987; fractional viability (U2OS [2]; 0.00100506 µM): 0.989; fractional viability (U2OS [2]; 0.003176 µM): 0.989; fractional viability (U2OS [2]; 0.0100362 µM): 0.987; fractional viability (U2OS [2]; 0.0317143 µM): 0.982; fractional viability (U2OS [2]; 0.100217 µM): 0.965; fractional viability (U2OS [2]; 0.316686 µM): 0.95; fractional viability (U2OS [2]; 1.00073 µM): 0.915; fractional viability (U2OS [2]; 3.1623 µM): 0.855; normalized growth rate inhibition value (U2OS [6]; 0.000318058 µM): 0.831; normalized growth rate inhibition value (U2OS [6]; 0.00100506 µM): 0.849; normalized growth rate inhibition value (U2OS [6]; 0.003176 µM): 0.896; normalized growth rate inhibition value (U2OS [6]; 0.0100362 µM): 0.726; normalized growth rate inhibition value (U2OS [6]; 0.0317143 µM): 0.484; normalized growth rate inhibition value (U2OS [6]; 0.100217 µM): 0.226; normalized growth rate inhibition value (U2OS [6]; 0.316686 µM): 0.223; normalized growth rate inhibition value (U2OS [6]; 1.00073 µM): 0.0973; normalized growth rate inhibition value (U2OS [6]; 3.1623 µM): -0.0193
7 | CC[C@@H](C(=O)[C@@H](C)[C@@H](O)[C@H](C)[C@@H]1O[C@@H]([C@@H](CC)C(=O)O)CC[C@@H]1C)[C@H]1O[C@]2(C=C[C@@H](O)[C@]3(CC[C@@](C)([C@H]4CC[C@](O)(CC)[C@H](C)O4)O3)O2)[C@H](C)C[C@@H]1C [Salinomycin] | 2.41 µM | 0.899 | 17500 nM | 59.9 | – | 0.63 | 0.722 | 0.316 | 0.975 | 0.955 | 0.725 | 0.322 | 0.992 | 0.77 | 0.405 | -0.253 | 0.982 | 0.977 | 1.07 | 0.814 | –
8 | CO[C@@H]1C[C@@H](C[C@H]2CC[C@H](C)[C@H]([C@@H](C)C(=O)O)O2)O[C@]2(O[C@](C)([C@H]3CC[C@@](C)([C@@H]4O[C@@H]([C@H]5O[C@@](O)(CO)[C@H](C)C[C@@H]5C)C[C@@H]4C)O3)C[C@H]2C)[C@@H]1C [Nigericin] | 0.436 µM | 0.625 | – | 57.3 | -0.311 | 0.277 | 0.685 | 0.155 | 0.957 | 0.829 | 0.661 | 0.449 | 0.78 | 0.484 | 0.287 | -0.106 | 0.963 | 0.903 | 0.857 | 0.777 | –
